Experiment: stability of solid form (statement only)
Format: physicochemical
Settings: qualitative statement, no data

| SMILES | stability |
| --- | --- |
| CCCO[C@H]1CC[C@H](N(C(=O)Nc2ncc(SCC(=O)O)s2)C2CCCCC2)CC1 [Form A, {2-[3-cyclohexyl-3-(trans-4-propoxy-cyclohexyl)-ureido]-thiazol-5-ylsulfanyl}-acetic acid] | particularly stable |
| CCCO[C@H]1CC[C@H](N(C(=O)Nc2ncc(SCC(=O)O)s2)C2CCCCC2)CC1 [UD1-FA, {2-[3-cyclohexyl-3-(trans-4-propoxy-cyclohexyl)-ureido]-thiazol-5-ylsulfanyl}-acetic acid] | greater stability relative to some of its pharmaceutically acceptable salts |
